We go through three molecules from US6376497B1, “Antifungal azole derivatives having a fluorinated vinyl group and process for preparing same” (Korea Research Institute of Chemical Technology, priority 1999, dated 2002).

What all share (test): In vitro antifungal activity, microbroth dilution MIC
Common to all, as to assay type: cell-based
Background: In broth dilution the organism is exposed to a series of concentrations in liquid medium.

In assay [1] the test system is Aspergillus furnigatus B. 19119. As to conditions: 4 to 48 hours; for Minimal inhibitory concentration (MIC): A furnigatus B. 19119, RPMI-1640, 35° C. On the procedure: (§1) In vitro antifungal activities of the inventive antifungal compounds were evaluated using the test strains shown in Table VIII by the following microbroth dilution method which is a modified version of the procedure recommended by National Committee for Clinical Laboratory Standards(see National Committee for Clinical Laboratory Standards, 1992, Reference methods for broth dilution antifungal susceptibility testing of yeasts, Proposed standard M27-P, National Committee for clinical laboratory standards, Villanova, Pa; and National Committee for Clinical Laboratory Standards, 1995, Reference methods for broth dilution antifungal susceptibility testing of yeasts. Tentative standard M27-T, National Committee for clinical laboratory standards, Villanova, Pa).
(§2) Sabourad Dextrose Agar(Difco) was used as a culture medium, and RPMI-1640 broth(Sigma. Co. w/L-glutamine, wo/NaHCO3)(0.165 M MOPS, pH 7.0), as a dilution medium.
(§3) Each of the test strains were subcultured in Sabourad Dextrose Agar medium twice and a stain sample was taken from prominent colonies and suspended in sterile physiological saline solution in a cap tube. The turbidity of the suspension was adjusted to that of the Mcfarland 0.5 standard sample(approximately 10^6 CFU/ml). Then the suspension was diluted 500-fold with sterile RPMI-1640 liquid medium to 2×10^3 CFU/ml.
(§4) Each of the test compounds(the compounds obtained in Examples 1 to 150 and comparative compounds, i.e., fluconazole(FCZ) and itraconazole (ICZ)), was dissolved in DMSO to give a stock solution having a concentration of 4000 μg/ml and the stock solution was successively diluted to obtain test solutions having test compound concentrations of 200, 100, 50, 25, 12.5, 6.25, 3.13, 1.56, 0.78, 0.39, 0.20 and 0.10 μg/ml, respectively.
(§5) 0.1 ml portion of the test solutions were added to the wells of a sterile 96 well plate. Then, 0.1 ml portion of each of the test strain solutions were added successively to the wells and the plate was incubated at 35° C. for 4 to 48 hours.
(§6) Minimal inhibitory concentration(MIC) of each compound was defined as the concentration of the test compound where no growth of the strain could be observed.

The subject of assay [2] is Aspergillus niger A. 16404. Particulars: 4 to 48 hours; for Minimal inhibitory concentration (MIC): A. niger A. 16404, RPMI-1640, 35° C. On the procedure: as §1, §2, §3, §4, §5, §6
For assay [3], the system named is Candida albicans A. 10231. As to conditions: 4 to 48 hours; for Minimal inhibitory concentration (MIC): C. albicans A. 10231, RPMI-1640, 35° C. On the procedure:
as §1, §2, §3, §4, §5, §6

The next assay deals with Candida albicans C1-2. Particulars: 4 to 48 hours; for Minimal inhibitory concentration (MIC): C. albicans C1-2, RPMI-1640, 35° C. As to the method: as §1, §2, §3, §4, §5, §6
Assay [4] relates to Candida albicans IFO. 1385. Particulars: 4 to 48 hours; for Minimal inhibitory concentration (MIC): C. albicans IFO. 1385, RPMI-1640, 35° C. As to the method:
as §1, §2, §3, §4, §5, §6

The subject of the next assay is Candida krusei K. 11655. Particulars: 4 to 48 hours; for Minimal inhibitory concentration (MIC): C. krusei K. 11655, RPMI-1640, 35° C. As to the method: as §1, §2, §3, §4, §5, §6
Assay [5] deals with Candida parapsitosis A. 7330. As to conditions: 4 to 48 hours; for Minimal inhibitory concentration (MIC): C. parapsitosis A. 7330, RPMI-1640, 35° C. On the procedure:
as §1, §2, §3, §4, §5, §6

Assay [6] has as its system Candida pseudotropicalis K. 11658. Particulars: 4 to 48 hours; for Minimal inhibitory concentration (MIC): C. pseudotropicalis K. 11658, RPMI-1640, 35° C. On the procedure:
as §1, §2, §3, §4, §5, §6

In assay [7] the test system is Candida tropicalis A. 13803. As to conditions: 4 to 48 hours; for Minimal inhibitory concentration (MIC): C. tropicalis A. 13803, RPMI-1640, 35° C. On the procedure:
as §1, §2, §3, §4, §5, §6

The test system of assay [8] is Cryptococcus neoformans A. 34144. Particulars: 4 to 48 hours; for Minimal inhibitory concentration (MIC): Cry. neoformans A. 34144, RPMI-1640, 35° C. As to the method: as §1, §2, §3, §4, §5, §6
Assay [9] relates to Cryptococcus neoformans B. 42419. As to conditions: 4 to 48 hours; for Minimal inhibitory concentration (MIC): Cry. neoformans B. 42419, RPMI-1640, 35° C. As to the method: as §1, §2, §3, §4, §5, §6
Assay [10] concerns Cryptococcus neoformans IFM. 40092. Particulars: 4 to 48 hours; for Minimal inhibitory concentration (MIC): Cry. neoformans IFM. 40092, RPMI-1640, 35° C. On the procedure:
as §1, §2, §3, §4, §5, §6

Assay [11] deals with Torulopsis glabrata B. 16205. As to conditions: 4 to 48 hours; for Minimal inhibitory concentration (MIC): T. glabrata B. 16205, RPMI-1640, 35° C. On the procedure:
as §1, §2, §3, §4, §5, §6

For assay [12], the system named is Trichophyton mentagrophytes A. 9129. As to conditions: 4 to 48 hours; for Minimal inhibitory concentration (MIC): T. mentagrophytes A. 9129, RPMI-1640, 35° C. As to the method: as §1, §2, §3, §4, §5, §6
Assay [13] has as its system Trichophyton mentagrophytes B. 32663. Particulars: 4 to 48 hours; for Minimal inhibitory concentration (MIC): T. mentagrophytes B. 32663, RPMI-1640, 35° C. On the procedure:
as §1, §2, §3, §4, §5, §6

[14] abbreviates: RPMI-1640, 35° C., no growth observed.

≈ marks a conversion by molar mass, not a printed value.

For `Cc1cccc(C(=C(F)OCC2COC(Cn3ccnc3)(c3ccc(Cl)cc3Cl)O2)C(F)(F)F)c1` (stereo not drawn) [Ex. 20], the “Minimal inhibitory concentration (MIC)” value in [1] amounted to 50.0 µg/mL (≈ 94.1 µM); in [2], 100 µg/mL (≈ 188 µM); in [3] it was 6.25 µg/mL (≈ 11.8 µM); in the assay on Candida albicans C1-2, 6.25 µg/mL (≈ 11.8 µM); in assay [4], 0.78 µg/mL (≈ 1.47 µM); in the assay with Candida krusei K. 11655, 100 µg/mL (≈ 188 µM). The “Minimal inhibitory concentration (MIC)” value in assay [5] was more than 100 µg/mL; in [6] it was 100 µg/mL (≈ 188 µM); in assay [7], 25.0 µg/mL (≈ 47.1 µM); in assay [8] it was 1.56 µg/mL (≈ 2.94 µM); in assay [9], 1.56 µg/mL (≈ 2.94 µM); in assay [10], 0.39 µg/mL (≈ 0.734 µM). In addition, the “Minimal inhibitory concentration (MIC)” value in assay [11] came out at 12.5 µg/mL (≈ 23.5 µM); in assay [12], 12.5 µg/mL (≈ 23.5 µM); in [13], 6.25 µg/mL (≈ 11.8 µM).
Consider `FC(OCC1COC(Cn2ccnc2)(c2ccc(F)cc2F)O1)=C(c1cccc(C(F)(F)F)c1)C(F)(F)F` (mixture of isomers) [Ex. 58], for which the “Minimal inhibitory concentration (MIC)” value in [1] is 25.0 µg/mL; in assay [2] it was more than 100 µg/mL; in [3] it was 25.0 µg/mL; in the assay with Candida albicans C1-2 it was 25.0 µg/mL; in assay [4] it was 0.78 µg/mL; with Candida krusei K. 11655 it was 100 µg/mL. Further, the “Minimal inhibitory concentration (MIC)” value in assay [5] is more than 100 µg/mL; in [6], 50.0 µg/mL; in assay [7] it was more than 100 µg/mL; in assay [8], 1.56 µg/mL; in [9], 1.56 µg/mL; in assay [10], 0.39 µg/mL. Also, the “Minimal inhibitory concentration (MIC)” value in assay [11] worked out at 6.25 µg/mL; in assay [12], 12.5 µg/mL; in assay [13] it was 6.25 µg/mL.
`FC(Oc1ccc(OCC2COC(Cn3ccnc3)(c3ccc(Cl)cc3Cl)O2)cc1)=C(c1cccc(C(F)(F)F)c1)C(F)(F)F` (mixture of isomers) [Ex. 96]: in assay [1] (setting [14]), the “Minimal inhibitory concentration(MIC), A furnigatus B. 19119” value turned out to be 100 µg/mL. Besides, the “Minimal inhibitory concentration(MIC), A. niger A. 16404” value in [2] (setting [14]) is more than 100 µg/mL. For the same molecule, in assay [3] (setting [14]), the “Minimal inhibitory concentration(MIC), C. albicans A. 10231” value stood at 100 µg/mL. Besides, the “Minimal inhibitory concentration(MIC), C. albicans C1-2” value in the assay on Candida albicans C1-2 (setting [14]) stood at 100 µg/mL. In assay [4] (setting [14]), the “Minimal inhibitory concentration(MIC), C. albicans IFO. 1385” value was found to be 3.13 µg/mL. In addition, the “Minimal inhibitory concentration(MIC), C. krusei K. 11655” value in the assay on Candida krusei K. 11655 (setting [14]) was more than 100 µg/mL. Also, the “Minimal inhibitory concentration(MIC), C. parapsitosis A. 7330” value in assay [5] (setting [14]) is more than 100 µg/mL. In [6] (setting [14]), the “Minimal inhibitory concentration(MIC), C. pseudotropicalis K. 11658” value is more than 100 µg/mL. The “Minimal inhibitory concentration(MIC), C. tropicalis A. 13803” value in [7] (setting [14]) was more than 100 µg/mL. Also, the “Minimal inhibitory concentration(MIC), Cry. neoformans A. 34144” value in assay [8] (setting [14]) stood at 3.13 µg/mL. For the same molecule, in [9] (setting [14]), the “Minimal inhibitory concentration(MIC), Cry. neoformans B. 42419” value was found to be 3.13 µg/mL. Moreover, the “Minimal inhibitory concentration(MIC), Cry. neoformans IFM. 40092” value in assay [10] (setting [14]) stood at 0.39 µg/mL. For the same molecule, the “Minimal inhibitory concentration(MIC), T. glabrata B. 16205” value in assay [11] (setting [14]) was 100 µg/mL. In addition, the “Minimal inhibitory concentration(MIC), T. mentagrophytes A. 9129” value in assay [12] (setting [14]) was 12.5 µg/mL. Also, the “Minimal inhibitory concentration(MIC), T. mentagrophytes B. 32663” value in assay [13] (setting [14]) turned out to be 6.25 µg/mL.
